Key:
[1] = test system: 293T Hsp90(α/β)/p23-FG xenografts; assay: 18F-FDG small animal PET/CT of tumor glucose metabolism; type: in vivo, mice
Description: FIG. 8B is a graph illustrating quantitation of the effect of CP9 on inhibition of glucose metabolism. The PET image of each mouse and each site at each time point was reconstructed and quantified using the OSEM 2D algorithm. The increase in max % ID/g at 43 h relative to 0 hr is shown as average±S.E.M. CP9 led to significant decrease in glucose metabolism, compared to carrier control treated mice (p<0.005).
^18F-FDG PET/CT has been used for repetitive and non-invasive monitoring of chemotherapy responses both in small animals and in humans (Aliaga et al., (2007) Mol. Imaging. Biol. 9: 144-150; de Geus-Oei et al., (2009) J. Nucl. Med. 50(Suppl 1): 43S-54S). Since CP9 inhibits glucose metabolism in cancer cells (FIG. 6B), its effect in the same cohort of living mice used for BLI (FIGS. 7A-7C) was monitored by small animal PET/CT imaging using ^18F-FDG. […] Baseline ^18F-FDG uptake in tumor-bearing mice was determined pre-treatment with four doses of carrier control (DMSO) or CP9 (80 mg/kg in DMSO) (FIG. 8A). The % max ID/g of ^18F-FDG uptake was determined by the OSEM2D method upon normalization of injected dose (Wiant et al., (2010) Med. Phys. 37: 1169-1182). The % increase in ^18F-FDG uptake at 43 h relative to 0 h was determined for each tumor site. […]

[2] = Body weight of treated mice; type: in vivo; settings: 43 h; P>0.05
cellular Hsp90 = assay: 3H-17AAG uptake in intact HT29 cells; type: cell-based; settings: CP9 0.4 to 12.5 μM, 3H-17AAG 0.5 μM, 1 h, dose-dependent, p<0.05
Description: FIG. 5D is a graph illustrating the inhibition of ^3H-17AAG uptake by CP9 in HT29 cells. HT29 cells were pre-incubated with different concentrations of CP9 together with ^3H-17AAG (0.5 μM) for 1 h followed by 1 h of wash-out of unbound ^3H-17AAG in fresh medium. The amount of ^3H-17-AAG incorporated intracellularly was determined by scintillation counting of cell lysates, followed by normalization for protein content and to carrier control-treated cells. Cells incubated with 5 μM of PU-H71 served as a positive control. Results are expressed as means of triplicates±S.E.M. *, p<0.05 vs. carrier control-treated cells.
To confirm the direct binding of CP9 to Hsp90(α/β), an in vitro competitive binding assay using purified Hsp90α and Hsp90β was performed using radiolabeled Hsp90 inhibitor ^3H-17AAG. Hsp90 proteins were pre-bound with CP9 or cold 17-AAG as a control prior to incubation with ^3H-17AAG. Unbound ^3H-17AAG was removed and the amount of ^3H-17AAG bound to the Hsp90 proteins was determined. […]
To determine if CP9 binds to cellular Hsp90, an uptake study of ^3H-17AAG (Moravek Biochemicals, Brea, Calif.) was performed. […] The total counts in each sample were normalized to that of the dose added to each well and to the amount of protein, and expressed as mean counts/dose/μg protein±S.E.M.

1975, 2008, HT29 cells = assay: 3H-FLT cell uptake (mammalian thymidine kinase activities); type: cell-based; settings: 48 h post treatment
Description: FIG. 10D is a graph illustrating the effect of CP9 on mammalian thymidine kinase activities in 1975, 2008, HT29, and MEFs cells as determined by ^3H-FLT cell uptake studies 48 h post treatment. Results were expressed as mean counts per minute/μg protein/initial dose±S.E.M. *, p<0.05 vs. carrier control treated cells.
To determine the specificity of CP9 in inhibition of glucose metabolism, normal MEF cells were used as a control.
To determine the downstream effects of lead compounds on glucose metabolism, 1.5×10^5 293T, 1975 and 2008 and MEFs cells plated in 24-well plate for 24 h, prior to treatment with different concentrations of CP9 for 24 or 48 h and subsequent incubation with 1 μCi of ^3H-FDG in 500 μl of medium for 1 h at 37° C. Cells treated with 2.5 μM of PU-H71 served as a positive control. The total counts in each sample were normalized to that of the dose added to each well and to the amount of protein, and expressed as mean counts/dose/μg protein±S.E.M. Likewise, the effect of CP9 on cell proliferation was determined using 1 μCi of ^3H-FLT per well after 2 h of incubation at 37° C.

SMILES: Cc1cc(NC(=O)CSc2nc(-c3cccs3)cc(C(F)(F)F)n2)no1 [CP9, N-(5-methylisoxazol-3-yl)-2-(4-(thiophen-2-yl)-6-(trifluoromethyl)pyrimidin-2-ylthio)acetamide]
- decrease in 18F-FDG uptake in tumors relative to carrier control treated mice ([1]; CP9 treatment, 43 h): 40%
- decrease in 18F-FDG uptake in tumors at 43 h relative to 0 h ([1]; four doses CP9 80 mg/kg in DMSO, n=10 tumors, p<0.005 vs carrier control): 16±9%
- body weight vs carrier control-treated mice [2]: no significant decreases in weight
- maximum reduction in uptake of 3H-17AAG relative to carrier control (cellular Hsp90): 30%
- 3H-FLT uptake in cancer cell lines (1975, 2008, HT29 cells): inhibits

— patent US20130310347A1, “MULTI-MODALITY MOLECULAR IMAGING HIGH-THROUGHPUT ASSAY FOR IDENTIFYING HEAT SHOCK PROTEIN 90 (HSP90) INHIBITORS” (The Board of Trustees of the Leland Stanford Junior …, priority 2012, published 2013)
